Data taken from ChEMBL document CHEMBL1154653, “Discovery and pharmacological characterization of aryl piperazine and piperidine ethers as dual acting norepinephrine reuptake inhibitors and 5-HT1A partial agonists” (Bioorg Med Chem Lett, 2009).

What was measured:
[1] = target: T1, 5-hydroxytryptamine receptor 1A (Homo sapiens, UniProt P08908); test: Partial agonist activity at human 5HT1A expressed in HEK293 cells by FLIPR assay; format: functional, cell-based
T1 sequence (P08908 whole entry): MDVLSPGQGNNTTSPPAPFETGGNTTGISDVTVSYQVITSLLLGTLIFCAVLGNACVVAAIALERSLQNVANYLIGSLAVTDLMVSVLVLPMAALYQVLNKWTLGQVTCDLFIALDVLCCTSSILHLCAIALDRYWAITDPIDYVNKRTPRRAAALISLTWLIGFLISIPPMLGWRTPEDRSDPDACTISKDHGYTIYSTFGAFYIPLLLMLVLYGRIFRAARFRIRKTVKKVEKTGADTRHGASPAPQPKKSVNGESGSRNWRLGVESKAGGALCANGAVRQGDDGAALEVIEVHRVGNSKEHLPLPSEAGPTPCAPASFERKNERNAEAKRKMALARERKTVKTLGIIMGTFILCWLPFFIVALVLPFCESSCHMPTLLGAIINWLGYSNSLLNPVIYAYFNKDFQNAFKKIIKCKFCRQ

[2] = target: T1, 5-hydroxytryptamine receptor 1A; test: biochemical
Description: Displacement of [3H]8-OH-DPAT from human 5HT1A receptor expressed in CHO cells

[3] = target: T2, Sodium-dependent dopamine transporter (Homo sapiens, UniProt Q01959); format: cell-based, HEK293
[4] = target: T3, Sodium-dependent noradrenaline transporter (Homo sapiens, UniProt P23975); test: biochemical
Description: Displacement of [125I]RTI-55 from human NET expressed in HEK293 cells

[5] = target: T4, Sodium-dependent serotonin transporter (Homo sapiens, UniProt P31645); test: biochemical
Description: Displacement of [125I]RTI-55 from human SERT expressed in HEK293 cells

[6] = target: T5, 5-hydroxytryptamine receptor 1A (Homo sapiens) (UniProt P08908); test: Partial agonist activity at human 5HT1A expressed in HEK293 cells by FLIPR assay relative to 5HT; format: functional, cell-based
T5 sequence (whole entry): T1 sequence (P08908 whole entry)

[7] = target: T3, Sodium-dependent noradrenaline transporter; test: Inhibition of norepinephrine uptake at human NET expressed in HEK293 cells; format: cell-based
[8] = target: T2, Sodium-dependent dopamine transporter; test: Inhibition of dopamine uptake at human DAT expressed in HEK293 cells; format: cell-based
[9] = target: T4, Sodium-dependent serotonin transporter; test: Inhibition of [3H]5-HT uptake at human 5HTT expressed in HEK293 cells; format: cell-based
[10] = Apparent intrinsic clearance in human liver microsomes; format: ADME, Microsome
Rattus norvegicus [11] = test: Ex vivo receptor occupancy at NET receptor in Sprague-Dawley rat brain at 10 mg/kg, sc by [3H]nisoxetine binding; format: functional; settings: route subcutaneous
Rattus norvegicus [12] = test: Ex vivo receptor occupancy at 5HT1A receptor in Sprague-Dawley rat brain at 10 mg/kg, sc by [3H]-OH-DAPT binding; format: functional; settings: route subcutaneous

T4 sequence (P31645 whole entry): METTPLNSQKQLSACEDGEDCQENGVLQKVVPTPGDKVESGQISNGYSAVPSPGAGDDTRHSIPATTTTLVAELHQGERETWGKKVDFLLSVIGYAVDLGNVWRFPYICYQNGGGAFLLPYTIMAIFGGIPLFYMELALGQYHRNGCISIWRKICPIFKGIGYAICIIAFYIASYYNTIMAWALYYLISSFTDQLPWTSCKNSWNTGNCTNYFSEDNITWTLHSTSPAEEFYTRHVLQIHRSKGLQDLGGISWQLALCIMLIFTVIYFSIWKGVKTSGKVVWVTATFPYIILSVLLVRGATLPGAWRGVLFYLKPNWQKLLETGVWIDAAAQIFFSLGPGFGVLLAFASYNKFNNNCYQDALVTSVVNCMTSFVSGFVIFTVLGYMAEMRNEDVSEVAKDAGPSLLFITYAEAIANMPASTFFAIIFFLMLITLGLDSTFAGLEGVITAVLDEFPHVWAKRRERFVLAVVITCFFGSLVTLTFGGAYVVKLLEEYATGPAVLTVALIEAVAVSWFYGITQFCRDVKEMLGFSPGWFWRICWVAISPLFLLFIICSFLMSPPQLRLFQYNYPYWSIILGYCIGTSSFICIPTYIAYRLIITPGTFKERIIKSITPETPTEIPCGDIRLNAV
T2 sequence (Q01959 whole entry): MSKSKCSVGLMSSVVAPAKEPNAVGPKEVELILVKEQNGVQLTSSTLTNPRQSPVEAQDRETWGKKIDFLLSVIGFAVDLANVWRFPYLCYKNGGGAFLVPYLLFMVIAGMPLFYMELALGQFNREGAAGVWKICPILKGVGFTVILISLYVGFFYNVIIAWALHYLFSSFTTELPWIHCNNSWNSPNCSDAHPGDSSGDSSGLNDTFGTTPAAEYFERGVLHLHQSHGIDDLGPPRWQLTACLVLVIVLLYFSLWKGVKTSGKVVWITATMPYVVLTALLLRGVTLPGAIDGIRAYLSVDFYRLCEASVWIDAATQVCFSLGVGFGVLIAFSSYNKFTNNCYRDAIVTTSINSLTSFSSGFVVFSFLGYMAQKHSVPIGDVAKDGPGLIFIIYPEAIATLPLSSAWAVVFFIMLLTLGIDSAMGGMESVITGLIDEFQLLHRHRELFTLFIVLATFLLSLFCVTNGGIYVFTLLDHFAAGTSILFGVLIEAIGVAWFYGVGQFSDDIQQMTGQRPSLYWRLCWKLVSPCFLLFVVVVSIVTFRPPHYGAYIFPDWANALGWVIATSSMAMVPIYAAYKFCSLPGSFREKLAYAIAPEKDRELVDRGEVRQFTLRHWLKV
T3 sequence (P23975 whole entry): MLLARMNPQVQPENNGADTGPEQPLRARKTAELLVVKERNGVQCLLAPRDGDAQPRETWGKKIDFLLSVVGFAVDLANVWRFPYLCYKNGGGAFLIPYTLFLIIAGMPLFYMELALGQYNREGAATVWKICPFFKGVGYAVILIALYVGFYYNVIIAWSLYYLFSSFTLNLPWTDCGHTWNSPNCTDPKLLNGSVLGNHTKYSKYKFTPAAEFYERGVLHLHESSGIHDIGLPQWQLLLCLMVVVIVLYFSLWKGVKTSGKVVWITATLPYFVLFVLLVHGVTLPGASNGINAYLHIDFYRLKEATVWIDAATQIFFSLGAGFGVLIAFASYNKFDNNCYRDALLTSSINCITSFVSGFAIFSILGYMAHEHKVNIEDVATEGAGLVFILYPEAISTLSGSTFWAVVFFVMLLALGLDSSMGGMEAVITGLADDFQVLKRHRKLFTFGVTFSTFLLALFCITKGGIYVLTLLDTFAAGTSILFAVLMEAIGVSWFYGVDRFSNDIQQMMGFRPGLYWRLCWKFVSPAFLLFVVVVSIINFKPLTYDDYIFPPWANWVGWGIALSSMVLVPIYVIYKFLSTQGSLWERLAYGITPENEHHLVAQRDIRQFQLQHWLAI

Ki [2]	Ki [3]	Ki [4]	Ki [5]	SMILES	other results
63 nM	284 nM	416 nM	1760 nM	c1ccc(Oc2ccccc2C2CCNCC2)cc1	–
5 nM	–	–	–	Clc1cccc(Oc2ccccc2C2CCNCC2)c1	EC50 [1]: 1150 nM; Emax [6]: 44%
117 nM	–	–	–	Fc1ccc(Oc2ccccc2C2CCNCC2)cc1	–
> 1000 nM	461 nM	1940 nM	49 nM	Fc1cccc(OCc2ccccc2C2CCNCC2)c1	–
20 nM	239 nM	1370 nM	2330 nM	Fc1cccc(C2CCNCC2)c1Oc1ccccc1	EC50 [1]: 877 nM; Emax [6]: 35%; EC50 [7]: 358 nM; EC50 [8]: 982 nM; EC50 [9]: 1760 nM; microsomal CLint [10]: 15 µL/min/mg
57 nM	1080 nM	3 nM	26 nM	Cc1ccc(F)c(Oc2ccccc2C2CCNCC2)c1	–
128 nM	45 nM	170 nM	706 nM	Fc1cccc(Oc2ccccc2)c1C1CCNCC1	–
606 nM	7370 nM	9 nM	2970 nM	Fc1cccc(C2CCNCC2)c1OCc1ccccc1	–
> 1000 nM	396 nM	1710 nM	364 nM	c1ccc(OCc2ccccc2C2CCNCC2)cc1	–
364 nM	–	–	–	Fc1cccc(OCc2ccccc2)c1C1CCNCC1	–
47 nM	–	–	–	Fc1ccccc1COc1ccccc1C1CCNCC1	–

Continued, compound first:

SMILES	Ki [2]	Ki [3]	Ki [4]	Ki [5]	other results
c1ccc(COc2ccccc2N2CCNCC2)cc1	28 nM	–	–	–	EC50 [1]: > 10000 nM
c1ccc(Oc2ccccc2N2CCNCC2)cc1	128 nM	4730 nM	554 nM	–	–
Fc1ccc(COc2ccccc2C2CCNCC2)cc1	77 nM	–	–	–	–
Cc1ccc(C2CCNCC2)c(Oc2ccc(F)cc2)c1	> 4570 nM	1680 nM	115 nM	427 nM	–
Fc1ccc(OCc2ccc(Cl)c(Cl)c2)c(C2CCNCC2)c1	1160 nM	452 nM	20 nM	2 nM	–
Fc1cccc(OCc2ccccc2N2CCNCC2)c1	116 nM	> 2000 nM	104 nM	17 nM	–
Fc1ccccc1COc1ccccc1N1CCNCC1	31 nM	> 10000 nM	526 nM	978 nM	–
Fc1cccc(OCc2ccccc2N2CCNCC2)c1F	101 nM	–	–	–	–
Fc1ccc(Oc2cc(F)c(F)cc2C2CCNCC2)cc1	> 4570 nM	–	–	–	–
Cc1ccc(C2CCNCC2)c(Oc2cccc(F)c2)c1	> 4570 nM	–	–	–	–
Fc1cccc(Oc2ccccc2N2CCNCC2)c1	9 nM	–	–	–	–
Fc1cccc(Oc2ccccc2C2CCNCC2)c1	–	–	–	–	Emax [6]: 51%
O=C1C(Cc2ccccc2N2CCNCC2)SCCN1c1ccc(Cl)c(Cl)c1 (centres undefined)	9 nM	87 nM	5 nM	81 nM	–
Fc1ccc(Oc2ccccc2N2CCNCC2)cc1	8 nM	–	–	–	–
Fc1ccc(COc2ccc(F)cc2C2CCNCC2)cc1	2210 nM	–	–	–	–
O=C1/C(=C/c2ccccc2N2CCNCC2)SCCN1c1ccc(F)cc1F	4 nM	1360 nM	650 nM	98 nM	–
Fc1cccc(Oc2cccc(F)c2C2CCNCC2)c1	21 nM	–	–	–	EC50 [1]: 137 nM; Emax [6]: 74%; Activity (Rattus norvegicus [11]): 80%; Activity (Rattus norvegicus [12]): 77%
c1ccc(N2CCNCC2)c(COc2ccccc2C2CC2)c1	466 nM	–	–	–	–
c1ccc(COc2ccccc2C2CCNCC2)cc1	121 nM	1000 nM	76 nM	74 nM	–
Fc1ccc(COc2ccc(Cl)cc2C2CCNCC2)cc1	> 1000 nM	5530 nM	6 nM	40 nM	–
c1ccc(OCc2ccccc2N2CCNCC2)cc1	189 nM	701 nM	–	780 nM	–
